{"source": "patent US4174390A", "about": "“Antibiotic A-7413 and process for preparation thereof” (Eli Lilly and Company, priority 1978, dated 1979)", "key": {"[1]": {"test_system": "Staphylococcus aureus strains", "test": "standard agar-dilution tests (ICS method), S. aureus strains", "format": "cell-based", "method": "A special advantage of the A-7413 compounds is their ability to inhibit organisms which are resistant to other antibiotics. In Table V are summarized the results of standard agar-dilution tests (using the ICS method) wherein A-7413 factor A was tested against a variety of Staphylococcus aureus strains. Results are given as the minimal inhibitory concentration (MIC) at which inhibition of the S. aureus strain occurred. The results obtained with the known antibiotic vancomycin in the same test are included for comparison."}, "Streptococcus species": {"test_system": "Streptococcus species", "test": "agar-dilution tests, penicillin-G-resistant Group-D-Streptococcus strains", "format": "cell-based, Streptococcus sp.", "method": "In Table VI are summarized the results of agar-dilution tests wherein A-7413 factor A was tested against a variety of Streptococcus species. These tests employed trypticase-soy agar plus blood, 10^-2 dilution of an overnight broth culture in 0.3% agar as an inoculum, giving approximately 5,000 bacteria per 7.5-mm of agar surface. Again, the results for vancomycin in the same test are reported for comparison. All strains tested are penicillin-G-resistant, Group-D-Streptococcus strains."}}, "data": [{"molecule": "CN[C@H](CC(C)C)C(=O)N[C@H]1C(=O)N[C@@H](CC(N)=O)C(=O)N[C@H]2C(=O)N[C@H]3C(=O)N[C@H](C(=O)N[C@H](C(=O)O)c4cc(O)cc(O)c4-c4cc3ccc4O)[C@H](O)c3ccc(c(Cl)c3)Oc3cc2cc(c3O[C@@H]2O[C@H](CO)[C@@H](O)[C@H](O)[C@H]2O[C@H]2C[C@](C)(N)[C@H](O)[C@H](C)O2)Oc2ccc(cc2Cl)[C@H]1O", "note": "[Vancomycin, vancomycin]", "values": [{"measurement": "MIC", "setting": "[1]; S. aureus strain 3055, penicillin G susceptible", "value": 1, "unit": "µg/mL"}, {"measurement": "MIC", "setting": "[1]; S. aureus strain 3074, penicillin G resistant, methicillin susceptible", "value": 1, "unit": "µg/mL"}, {"measurement": "MIC", "setting": "[1]; S. aureus strain 3123, penicillin G susceptible", "value": 1, "unit": "µg/mL"}, {"measurement": "MIC", "setting": "[1]; S. aureus strain 3125, penicillin G and methicillin resistant", "value": 1, "unit": "µg/mL"}, {"measurement": "MIC", "setting": "[1]; S. aureus strain 3130, penicillin G and methicillin resistant", "value": 1, "unit": "µg/mL"}, {"measurement": "MIC", "setting": "[1]; S. aureus strain 3131, penicillin G and methicillin resistant", "value": 1, "unit": "µg/mL"}, {"measurement": "MIC", "setting": "[1]; S. aureus strain 3132, penicillin G and methicillin resistant", "value": 1, "unit": "µg/mL"}, {"measurement": "MIC", "setting": "[1]; S. aureus strain 3133, penicillin G and methicillin resistant", "value": 1, "unit": "µg/mL"}, {"measurement": "MIC", "setting": "[1]; S. aureus strain 3134, penicillin G and methicillin resistant", "value": 1, "unit": "µg/mL"}, {"measurement": "MIC", "setting": "[1]; S. aureus strain 3135, penicillin G and methicillin resistant", "value": 0.5, "unit": "µg/mL"}, {"measurement": "MIC", "setting": "[1]; S. aureus strain 3136, penicillin G and methicillin resistant", "value": 0.5, "unit": "µg/mL"}, {"measurement": "MIC", "setting": "[1]; S. aureus strain 3137, penicillin G and methicillin resistant", "value": 1, "unit": "µg/mL"}, {"measurement": "MIC", "setting": "[1]; S. aureus strain 3138, penicillin G and methicillin resistant", "value": 1, "unit": "µg/mL"}, {"measurement": "MIC", "setting": "[1]; S. aureus strain 3139, penicillin G and methicillin resistant", "value": 1, "unit": "µg/mL"}, {"measurement": "MIC", "setting": "[1]; S. aureus strain 3140, penicillin G and methicillin resistant", "value": 0.5, "unit": "µg/mL"}, {"measurement": "MIC", "setting": "[1]; S. aureus strain H43, penicillin G resistant, methicillin susceptible", "value": 1, "unit": "µg/mL"}, {"measurement": "MIC", "setting": "[1]; S. aureus strain H114, penicillin G resistant, methicillin susceptible", "value": 1, "unit": "µg/mL"}, {"measurement": "MIC", "setting": "[1]; S. aureus strain H290, penicillin G susceptible", "value": 1, "unit": "µg/mL"}, {"measurement": "MIC", "setting": "[1]; S. aureus strain H541, penicillin G resistant, methicillin susceptible", "value": 1, "unit": "µg/mL"}, {"measurement": "MIC", "setting": "Streptococcus species; Streptococcus sp. strain 238, trypticase-soy agar plus blood", "value": 2, "unit": "µg/mL"}, {"measurement": "MIC", "setting": "Streptococcus species; Streptococcus sp. strain 282, trypticase-soy agar plus blood", "value": 2, "unit": "µg/mL"}, {"measurement": "MIC", "setting": "Streptococcus species; Streptococcus sp. strain 8043, trypticase-soy agar plus blood", "value": 4, "unit": "µg/mL"}, {"measurement": "MIC", "setting": "Streptococcus species; Streptococcus sp. strain 9901, trypticase-soy agar plus blood", "value": 4, "unit": "µg/mL"}, {"measurement": "MIC", "setting": "Streptococcus species; Streptococcus sp. strain 9913, trypticase-soy agar plus blood", "value": 2, "unit": "µg/mL"}, {"measurement": "MIC", "setting": "Streptococcus species; Streptococcus sp. strain 9933, trypticase-soy agar plus blood", "value": 8, "unit": "µg/mL"}, {"measurement": "MIC", "setting": "Streptococcus species; Streptococcus sp. strain 9960, trypticase-soy agar plus blood", "value": 4, "unit": "µg/mL"}, {"measurement": "MIC", "setting": "Streptococcus species; Streptococcus sp. strain 12253P, trypticase-soy agar plus blood", "value": 2, "unit": "µg/mL"}, {"measurement": "MIC", "setting": "Streptococcus species; Streptococcus sp. strain 55992, trypticase-soy agar plus blood", "value": 4, "unit": "µg/mL"}, {"measurement": "MIC", "setting": "Streptococcus species; Streptococcus sp. strain Mitis, trypticase-soy agar plus blood", "value": 4, "unit": "µg/mL"}, {"measurement": "MIC", "setting": "Streptococcus species; Streptococcus sp. strain Shrigley, trypticase-soy agar plus blood", "value": 4, "unit": "µg/mL"}]}]}
